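Tested at 5 concentrations; 48 h exposure; 96-well plates; endpoints linearly interpolated, else capped at highest concentration. Here, GI50 denotes the concentration required for 50% inhibition of growth. TGI: total growth inhibition.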
How the values were obtained:
Assay in all cases: inhibition of tumour cell growth, NCI panel, 48 h
[1] = test system: SNB-75 CNS
[2] = test system: EKVX NSCLC
[3] = test system: T-47D breast
[4] = test system: CAKI-1 renal
[5] = test system: NCI-H23 lung
[6] = test system: A549 NSCLC
[7] = test system: PC-3 prostate
[8] = test system: HCT-15 colon
[9] = test system: HOP-62 NSCLC
[10] = test system: COLO 205 colon
[11] = test system: SN12C renal
[12] = test system: CCRF-CEM leukemia
[13] = test system: SK-MEL-5 melanoma
[14] = test system: ACHN renal
[15] = test system: KM12 colon
[16] = test system: OVCAR-8 ovarian
[17] = test system: NCI-H522 lung
[18] = test system: OVCAR-4 ovarian
[19] = test system: UO-31 renal
[20] = test system: SF-295 CNS
[21] = test system: IGROV1 ovarian
[22] = test system: RPMI-8226 leukemia
[23] = test system: MDA-MB-435
[24] = test system: HS 578T breast
[25] = test system: K-562 leukemia
[26] = test system: HCC-2998 colon
[27] = test system: SK-MEL-28 melanoma

Cc1ccc2c(n1)C(=O)C(Cl)=C(Nc1ccc(C(C)C)cc1)C2=O
GI50 [1]: 1670 nM | TGI [1]: 5.17 µM | GI50 [2]: 1500 nM | TGI [2]: 4.18 µM | GI50 [3]: 1180 nM | TGI [3]: 3.46 µM | GI50 [4]: 1530 nM | TGI [4]: 3.15 µM | GI50 [5]: 1820 nM | TGI [5]: 5.05 µM | GI50 [6]: 3.26 µM | TGI [6]: 12.4 µM | GI50 [7]: 1280 nM | TGI [7]: 3.16 µM | GI50 [8]: 1390 nM | TGI [8]: 3.14 µM | GI50 [9]: 5.34 µM | TGI [9]: 20.1 µM | GI50 [10]: 1890 nM | TGI [10]: 3.97 µM | GI50 [11]: 2030 nM | TGI [11]: 5.38 µM | GI50 [12]: 1900 nM | TGI [12]: 5.78 µM | GI50 [13]: 1590 nM | TGI [13]: 3000 nM | GI50 [14]: 1660 nM | TGI [14]: 3.09 µM | GI50 [15]: 3.25 µM | TGI [15]: 14 µM | GI50 [16]: 2590 nM | TGI [16]: 9.48 µM | GI50 [17]: 2020 nM | TGI [17]: 4.58 µM | GI50 [18]: 1570 nM | TGI [18]: 3.15 µM | GI50 [19]: 1230 nM | TGI [19]: 2600 nM | GI50 [20]: 3.63 µM | TGI [20]: 13 µM | GI50 [21]: 1290 nM | TGI [21]: 2960 nM | GI50 [22]: 1520 nM | TGI [22]: 4.53 µM | GI50 [23]: 1930 nM | TGI [23]: 3.7 µM | GI50 [24]: 2070 nM | TGI [24]: 5.96 µM | GI50 [25]: 351 nM | TGI [25]: 1680 nM | GI50 [26]: 1990 nM | TGI [26]: 3.65 µM | GI50 [27]: 1830 nM

Source: PubChem BioAssay (NCI)
